# Assay results reported in patent publication US20070191493A1, “Use of n-alkanols as activators of the cftr channel” (priority 2003, published 2007).
# What was measured:
# Assay type in all cases: cell-based
# [1] = target: T1, ΔF508 mutated CFTR channel (Homo sapiens, UniProt P13569, DEL508-508); assay: iodide efflux in JME/CF15 human bronchial epithelial cells from cystic fibrosis patients; conditions: glibenclamide 100 μM, DIDS 500 μM
# T1 construct: epithelial cells extracted from respiratory airways of patients suffering from cystic fibrosis (homozygous ΔF508); endogenous in cells; host or cells: JME/CF15 human airway epithelial cells (homozygous ΔF508)
# Protocol: (§1) The CFTR studies are also carried out on Calu-3 cells (ATCC No. HTB-55), which are human pulmonary epithelial cells endogenously expressing the CFTR channel. These cells are cultured under the same culture conditions as the CHO cells. The study of the mutated CFTR channel is carried out on JME/CF15 cells, which are epithelial cells extracted from respiratory airways of patients suffering from cystic fibrosis (homozygous ΔF508) (Jefferson et al., 1990). These cells therefore express the ΔF508 mutated CFTR channel. These cells are cultured under the same conditions as above, but the culture medium is supplemented with a hormone mixture containing: adenine (180 μM), insulin (5 μg/ml), transferrin (5 μg/ml), hydrocortisone (1.1 μM), triiodothyronine (2 nM), epinephrine (5.5 μM), epidermal growth factor (1.64 nM).
# (§2) This technique makes it possible to follow the kinetics of exit of the ^125I radioactive iodide. The cells are cultured in 24-well plates with a dilution to 1/10 after passage. On the fourth day of culture, the drugs to be tested are dissolved in solution according to the desired concentration, at 37° C., in medium B, at pH 7.4, containing, in mM: 137 NaCl, 5.36 KCl, 0.8 mM MgCl2, 1.8 mM CaCl2, 5.5 glucose and 10 HEPES-NaOH. The wells are washed 4 times with 500 μl of medium B. The solution is subsequently replaced with 500 μl of loading solution containing 1 μM KI and 0.5 μCi of ^125INa/ml for 30 min. The kinetics of exit of ^125I are determined after having eliminated the loading solution and washed the wells 4 times with 500 μl of medium B. For the ^125I exit kinetics, 500 μl of medium B containing or not containing the molecules to be tested are incubated for 30 sec in the wells and recovered in a hemolysis tube, so as to be replaced with 500 μl of medium B containing or not containing the molecules to be tested. The operation is repeated every 30 s for 2 to 6 min. At the end of the efflux, the intracellular ions are extracted by adding 1 ml of trichloroacetic acid (7.5%) to the cell layer. All the samples are counted in a gamma counter (Kontron). The precipitated proteins are solubilized in 0.1N NaOH and quantified using a calorimetric test.
# (§3) The tracer contained in the cell layer at the beginning of the efflux is calculated as the sum of the samples and of the extracts counted. The efflux curves are constructed by expressing the percentage of the content remaining in the cell layer (I %) with respect to time. The stimulated or nonstimulated efflux rate constants (k, min^−1) are determined by smoothing the efflux curves to a monoexponential function I %=100*exp(−kt) using a linear regression of the neperian logarithm of the data, k is used to calculate the iodide released into the medium with respect to time. The hypothesis is made that, in the presence of a stimulator, the efflux is the sum of two iodide effluxes occurring in parallel: a basal efflux and a stimulated efflux characterized, respectively, by the constants kb and ks. The total net efflux is then described by the equation It^%=100*(1−exp(−ktt)) where kt is the sum of kb and ks. Finally, ks calculated as kt−kb is used to establish a dose-response relationship for antagonists. The data is expressed as means ±SD, and the t-test is used to determine the significances. […] Y begins at the basal level and progresses to the plateau (Ymax), X is the concentration and the half-effect values (EC are calculated using GraphPad Prism v3.0 (GraphPad software)).
# [2] = target: T2, human CFTR channel endogenously expressed in Calu-3 (Homo sapiens, UniProt P13569); assay: iodide efflux in Calu-3 human bronchial epithelial cells; conditions: Calu-3; 1 hour treatment; glibenclamide 100 μM, DIDS 500 μM
# T2 construct: human pulmonary epithelial cells endogenously expressing the CFTR channel; host or cells: Calu-3 human pulmonary epithelial cells
# Protocol: as §1, §2, §3
# CFTR channel = CFTR channel (Homo sapiens, UniProt P13569); assay: 125I radioactive iodide efflux in CHO-CFTR(+) cells; design: expressed in transfected cells; host or cells: CHO (Chinese hamster ovary) cells, CHO-CFTR(+); conditions: for order of activation of CFTR by n-alkanols: 1 mM, 125I efflux or patch-clamp; for activation of CFTR (125I efflux), in words: n-alkanols 1 mM, FSK 1 μM, A23187 2 μM, α-GA 10 and 100 μM
# Protocol: The cells are cultured in 24-well plates with a dilution to 1/10 after passage. […] The operation is repeated every 30 s for 2 to 6 min. […] All the samples are counted in a gamma counter (Kontron). The precipitated proteins are solubilized in 0.1N NaOH and quantified using a calorimetric test.
# The tracer contained in the cell layer at the beginning of the efflux is calculated as the sum of the samples and of the extracts counted. The efflux curves are constructed by expressing the percentage of the content remaining in the cell layer (I %) with respect to time. The stimulated or nonstimulated efflux rate constants (k, min^−1) are determined by smoothing the efflux curves to a monoexponential function I %=100*exp(−kt) using a linear regression of the neperian logarithm of the data, k is used to calculate the iodide released into the medium with respect to time. The hypothesis is made that, in the presence of a stimulator, the efflux is the sum of two iodide effluxes occurring in parallel: a basal efflux and a stimulated efflux characterized, respectively, by the constants kb and ks. The total net efflux is then described by the equation It^%=100*(1−exp(−ktt)) where kt is the sum of kb and ks. Finally, ks calculated as kt−kb is used to establish a dose-response relationship for antagonists. The data is expressed as means ±SD, and the t-test is used to determine the significances. The concentration-response curves for agonists or for antagonists are smooth using the hyperbolic equation Y=Ymax*X/(EC5C+X), where Y is the response. Y begins at the basal level and progresses to the plateau (Ymax), X is the concentration and the half-effect values (EC are calculated using GraphPad Prism v3.0 (GraphPad software)).
# Chain of CFTR channel (P13569 whole entry): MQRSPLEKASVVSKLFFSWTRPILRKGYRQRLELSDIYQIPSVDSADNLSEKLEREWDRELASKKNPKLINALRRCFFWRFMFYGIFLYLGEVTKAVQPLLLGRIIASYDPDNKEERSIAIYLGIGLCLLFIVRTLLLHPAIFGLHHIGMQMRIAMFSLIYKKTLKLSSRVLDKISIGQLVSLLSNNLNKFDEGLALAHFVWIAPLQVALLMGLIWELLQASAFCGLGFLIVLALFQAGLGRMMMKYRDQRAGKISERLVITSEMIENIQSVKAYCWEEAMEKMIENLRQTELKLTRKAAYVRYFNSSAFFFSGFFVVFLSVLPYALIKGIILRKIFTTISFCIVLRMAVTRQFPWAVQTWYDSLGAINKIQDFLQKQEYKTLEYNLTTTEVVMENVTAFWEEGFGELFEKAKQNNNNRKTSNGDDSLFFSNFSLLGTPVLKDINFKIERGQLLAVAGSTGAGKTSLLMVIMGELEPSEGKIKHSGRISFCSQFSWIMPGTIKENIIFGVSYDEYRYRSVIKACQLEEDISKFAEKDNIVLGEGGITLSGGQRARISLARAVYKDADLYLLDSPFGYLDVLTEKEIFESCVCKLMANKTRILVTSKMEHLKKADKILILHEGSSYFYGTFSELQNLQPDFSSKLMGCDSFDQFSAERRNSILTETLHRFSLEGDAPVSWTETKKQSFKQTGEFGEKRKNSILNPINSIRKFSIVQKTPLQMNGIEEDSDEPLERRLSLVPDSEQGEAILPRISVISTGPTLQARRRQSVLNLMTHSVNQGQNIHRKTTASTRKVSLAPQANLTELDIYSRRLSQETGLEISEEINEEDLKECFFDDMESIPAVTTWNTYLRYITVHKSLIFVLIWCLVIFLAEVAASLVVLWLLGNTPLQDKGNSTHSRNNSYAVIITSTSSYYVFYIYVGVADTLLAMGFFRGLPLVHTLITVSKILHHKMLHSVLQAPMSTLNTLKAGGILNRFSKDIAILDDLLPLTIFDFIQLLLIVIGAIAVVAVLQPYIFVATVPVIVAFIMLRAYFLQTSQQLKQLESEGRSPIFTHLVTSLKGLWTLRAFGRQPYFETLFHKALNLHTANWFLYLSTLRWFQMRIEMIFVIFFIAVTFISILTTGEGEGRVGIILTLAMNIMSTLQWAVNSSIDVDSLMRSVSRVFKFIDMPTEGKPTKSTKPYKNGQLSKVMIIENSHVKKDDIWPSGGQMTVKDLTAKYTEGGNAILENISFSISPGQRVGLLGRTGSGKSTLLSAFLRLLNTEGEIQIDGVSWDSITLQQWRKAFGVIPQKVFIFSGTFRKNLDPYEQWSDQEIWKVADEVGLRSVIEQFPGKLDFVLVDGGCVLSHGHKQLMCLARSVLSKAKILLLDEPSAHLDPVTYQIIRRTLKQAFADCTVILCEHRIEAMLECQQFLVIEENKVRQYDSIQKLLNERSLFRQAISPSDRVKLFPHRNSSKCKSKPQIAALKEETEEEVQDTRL
# T2 sequence (P13569 whole entry): as above
# T1 sequence (P13569 with tags, fused parts or gaps DEL508-508): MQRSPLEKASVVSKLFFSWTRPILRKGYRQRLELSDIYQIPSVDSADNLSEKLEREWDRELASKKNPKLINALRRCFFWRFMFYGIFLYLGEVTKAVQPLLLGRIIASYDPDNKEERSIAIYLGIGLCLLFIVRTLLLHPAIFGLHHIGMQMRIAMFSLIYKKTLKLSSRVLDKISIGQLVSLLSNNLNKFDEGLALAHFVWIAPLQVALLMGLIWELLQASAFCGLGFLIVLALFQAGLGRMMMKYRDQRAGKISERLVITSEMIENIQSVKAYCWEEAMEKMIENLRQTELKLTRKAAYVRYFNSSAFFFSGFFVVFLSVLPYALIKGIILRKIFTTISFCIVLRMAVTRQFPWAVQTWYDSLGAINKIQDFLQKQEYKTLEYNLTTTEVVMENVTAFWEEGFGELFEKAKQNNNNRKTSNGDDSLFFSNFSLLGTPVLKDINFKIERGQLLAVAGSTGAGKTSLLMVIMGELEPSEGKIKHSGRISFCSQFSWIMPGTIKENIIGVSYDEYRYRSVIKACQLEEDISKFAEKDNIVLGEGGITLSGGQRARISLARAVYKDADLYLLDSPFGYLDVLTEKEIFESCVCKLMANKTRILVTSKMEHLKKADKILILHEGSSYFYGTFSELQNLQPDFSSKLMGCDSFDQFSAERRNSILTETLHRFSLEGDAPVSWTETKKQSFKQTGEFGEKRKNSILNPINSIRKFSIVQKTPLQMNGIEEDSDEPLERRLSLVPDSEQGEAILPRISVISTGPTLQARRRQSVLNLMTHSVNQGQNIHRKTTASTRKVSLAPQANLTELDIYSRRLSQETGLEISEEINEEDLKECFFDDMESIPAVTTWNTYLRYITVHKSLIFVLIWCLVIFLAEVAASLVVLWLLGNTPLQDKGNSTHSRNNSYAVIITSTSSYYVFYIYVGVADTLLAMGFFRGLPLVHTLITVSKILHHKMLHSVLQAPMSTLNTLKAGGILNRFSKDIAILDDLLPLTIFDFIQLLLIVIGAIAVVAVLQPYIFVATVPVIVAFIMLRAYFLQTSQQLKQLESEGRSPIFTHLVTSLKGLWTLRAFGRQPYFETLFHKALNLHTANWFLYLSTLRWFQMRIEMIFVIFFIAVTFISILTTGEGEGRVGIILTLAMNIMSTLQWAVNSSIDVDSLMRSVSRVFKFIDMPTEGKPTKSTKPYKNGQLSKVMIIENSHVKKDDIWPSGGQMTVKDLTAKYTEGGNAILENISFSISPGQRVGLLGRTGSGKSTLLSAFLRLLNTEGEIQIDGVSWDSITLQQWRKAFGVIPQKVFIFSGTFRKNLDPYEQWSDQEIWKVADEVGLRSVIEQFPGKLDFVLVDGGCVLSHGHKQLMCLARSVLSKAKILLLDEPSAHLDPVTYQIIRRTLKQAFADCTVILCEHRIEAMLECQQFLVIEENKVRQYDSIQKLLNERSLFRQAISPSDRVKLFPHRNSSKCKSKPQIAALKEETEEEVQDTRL
"activation of CFTR (125I efflux), in words (CFTR channel; CHO-CFTR(+) cells)",Compound,order of activation of CFTR by n-alkanols (CFTR channel),other results
–,"O=S(=O)(O)c1cc(N=C=S)ccc1C=Cc1ccc(N=C=S)cc1S(=O)(=O)O [DIDS, 4,4′-diisothiocyanatostilbene-2,2′-disulfonic acid, reference compound]",–,effect of inhibitor on CFTR-ΔF508 activation by octan-1-ol [1]: insensitive; effect of inhibitor on octan-1-ol-activated efflux [2]: has no effect
–,"C=C[C@@]1(C)CC(=O)[C@]2(O)[C@@]3(C)[C@@H](O)CCC(C)(C)[C@@H]3[C@H](O)[C@H](OC(C)=O)[C@@]2(C)O1 [FSK, forskolin, reference compound]",–,"EC50 (CFTR channel; EC50 of activation of CFTR (125I efflux rate constant), CHO-CFTR(+) cells, FSK 0.1 to 5 μM): ~0.5 µM"
–,"O=S(=O)(NCCNC/C=C/c1ccc(Br)cc1)c1cccc2cnccc12 [H-89, reference compound]",–,"effect of inhibitor on activated 125I efflux (CFTR channel; CHO-CFTR(+) cells stimulated by octan-1-ol 1 mM, FSK 1 μM or both, glibenclamide 100 μM, H-89 30 μM, PKC inhibitor): inhibited"
significantly activates the CFTR channel,CCCCCCCCCCO [decan-1-ol],hexan-1-ol<heptan-1-ol<octan-1-ol<octan-2-ol<decan-1-ol,–
increase in activation of CFTR,CCCCCCCO [heptan-1-ol],hexan-1-ol<heptan-1-ol<octan-1-ol<octan-2-ol<decan-1-ol,–
also activates the CFTR protein,CCCCCCC(C)O (stereo not shown) [octan-2-ol],hexan-1-ol<heptan-1-ol<octan-1-ol<octan-2-ol<decan-1-ol,–

Compound,"activation of CFTR (125I efflux), in words (CFTR channel; CHO-CFTR(+) cells)",order of activation of CFTR by n-alkanols (CFTR channel),other results
"CO [methanol, reference compound]",not significantly different from the unstimulated efflux,–,–
butan-1-ol [reference compound],not significantly different from the unstimulated efflux,–,"activation of CFTR (125I efflux), in words (CFTR channel; CHO-CFTR(+) cells, listed as butanol): do not activate the CFTR channel"
